Data on four compounds can be found in article PMC3720905, “A Conserved Aspartic Acid Is Important for Agonist (VUAA1) and Odorant/Tuning Receptor-Dependent Activation of the Insect Odorant Co-Receptor (Orco)” (PLoS ONE, 2013).

Experiment [1] concerns T1, DmelOrco/AgOR65 complex.
T1 construct: gene Or65; mixed-species heteromeric channel; AgOR65 in pCI transfected into Flp-In 293 T-REX cells stably expressing N-myc DmelOrco; with Odorant receptor coreceptor (Drosophila melanogaster)
Nature of the experiment: Ca2+ influx (Fluo-4 AM fluorescence). The format is cell-based, Anopheles gambiae. The conditions noted are these: log10 of molar EC50 (unit not given); heteromeric channel, odorant agonist.

In experiment [2] the test system is T1, DmelOrco/AgOR65 complex. Nature of the experiment: Ca2+ influx (Fluo-4 AM fluorescence). It is filed as cell-based, Anopheles gambiae. To be noted: log10 of molar EC50 (unit not given); heteromeric channel, odorant agonist. This is another data set of the same source.
For experiment [3], the system named is T1, DmelOrco/AgOR65 complex. Nature of the experiment: Ca2+ influx (Fluo-4 AM fluorescence). It is filed as cell-based, Anopheles gambiae. The conditions noted are these: log10 of molar EC50 (unit not given); heteromeric channel, odorant agonist. The source holds these as a separate data set.
Experiment [4] deals with T2, DmelOrco/DmelOR22a complex (Drosophila melanogaster, UniProt P81909).
T2 construct: gene Or22a; heteromeric channel; Or22a in pCI transiently transfected into Flp-In 293 T-REX cells stably expressing N-myc DmelOrco; stoichiometry unknown; with Odorant receptor coreceptor
T2 sequence (P81909 1-397): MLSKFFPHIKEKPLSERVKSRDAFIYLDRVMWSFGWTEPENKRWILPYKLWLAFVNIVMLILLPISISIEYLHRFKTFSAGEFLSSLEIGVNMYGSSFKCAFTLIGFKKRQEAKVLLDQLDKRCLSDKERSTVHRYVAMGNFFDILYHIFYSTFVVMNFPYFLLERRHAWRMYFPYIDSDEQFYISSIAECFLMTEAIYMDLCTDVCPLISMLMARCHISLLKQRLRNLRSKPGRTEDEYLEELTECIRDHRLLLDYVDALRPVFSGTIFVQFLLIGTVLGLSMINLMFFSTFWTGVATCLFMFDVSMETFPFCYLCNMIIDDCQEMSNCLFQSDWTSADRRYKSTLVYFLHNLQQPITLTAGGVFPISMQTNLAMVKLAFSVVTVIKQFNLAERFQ
T2 sequence (Q9VNB5 1-486 partner): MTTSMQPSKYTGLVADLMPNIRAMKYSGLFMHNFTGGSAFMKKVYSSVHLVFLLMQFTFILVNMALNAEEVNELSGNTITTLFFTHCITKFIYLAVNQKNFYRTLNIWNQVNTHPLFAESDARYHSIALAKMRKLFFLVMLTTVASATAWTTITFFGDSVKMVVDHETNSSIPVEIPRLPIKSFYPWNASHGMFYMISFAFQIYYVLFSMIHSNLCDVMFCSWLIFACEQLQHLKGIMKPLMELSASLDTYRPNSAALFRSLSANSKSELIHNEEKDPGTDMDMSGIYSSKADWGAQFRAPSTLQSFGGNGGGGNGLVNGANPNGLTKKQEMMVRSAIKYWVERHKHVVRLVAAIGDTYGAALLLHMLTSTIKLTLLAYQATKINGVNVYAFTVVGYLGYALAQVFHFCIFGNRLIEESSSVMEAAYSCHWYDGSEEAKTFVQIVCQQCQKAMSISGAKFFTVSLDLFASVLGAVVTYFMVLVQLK
Nature of the experiment: Ca2+ influx (Fluo-4 AM fluorescence). The format is cell-based.

Experiment [5] has as its target T3, DmelOrco (N-myc DmelOrco) (Drosophila melanogaster, UniProt Q9VNB5, D357N).
T3 construct: gene Orco; homomeric channel; ~50 kDa band
T3 sequence (Q9VNB5 1-486 D357N): T2 sequence (Q9VNB5 1-486 partner)
Nature of the experiment: Ca2+ influx (Fluo-4 fluorescence). It is filed as cell-based.

Experiment [6] has as its target T4, DmelOrco (N-myc DmelOrco) (Drosophila melanogaster, UniProt Q9VNB5, D466N).
T4 construct: gene Orco; homomeric channel; ~50 kDa band
T4 sequence (Q9VNB5 1-486 D466N): T2 sequence (Q9VNB5 1-486 partner)
Nature of the experiment: Ca2+ influx (Fluo-4 fluorescence). It is filed as cell-based.

Experiment [7] has as its target T5, DmelOrco (N-myc DmelOrco) (Drosophila melanogaster, UniProt Q9VNB5, D466E).
T5 construct: gene Orco; homomeric channel; ~50 kDa band
T5 sequence (Q9VNB5 1-486 D466E): T2 sequence (Q9VNB5 1-486 partner)
Put plainly: Ca2+ influx (Fluo-4 fluorescence). The format is cell-based.

Experiment [8] addresses T6, DmelOrco (N-myc DmelOrco) (Drosophila melanogaster, UniProt Q9VNB5).
T6 construct: gene Orco; homomeric channel; ~50 kDa band
T6 sequence (Q9VNB5 1-486): T2 sequence (Q9VNB5 1-486 partner)
Nature of the experiment: Ca2+ influx (Fluo-4 fluorescence). The format is cell-based.

Experiment [9] deals with T2, DmelOrco/DmelOR22a complex. Nature of the experiment: Ca2+ influx (Fluo-4 AM fluorescence). It is filed as cell-based. To be noted: heteromeric channel, odorant agonist; data not shown.

On to `C=CCc1ccc(O)c(OC)c1` [eugenol], for which the LogEC50 with DmelOrco/AgOR65 complex [1] is -6.54±0.05; in the experiment with DmelOrco/AgOR65 complex [2] it was -6.75±0.03; in the experiment on DmelOrco/AgOR65 complex [3] it was -6.34±0.04.
As a reminder, the EC50 is the concentration at which the effect is half-maximal. `CCCCCC(=O)OC` [methyl hexanoate] gave a 50% effective concentration (EC50) in [4] of 0.417 µM.
As to `CCc1ccc(NC(=O)CSc2nnc(-c3cccnc3)n2CC)cc1` [VUAA1, N-(4-ethylphenyl)-2-((4-ethyl-5-(3-pyridinyl)-4H-1,2,4-triazol-3-yl)thio)acetamide], the concentration giving a half-maximal response (EC50) is 38 µM in experiment [5], 85.1 µM in [6], 21.4 µM in [7] and 46.8 µM in experiment [8].
In the case of `CCCCCC(=O)OCC` [ethyl hexanoate], the “Ca2+ influx (Fluo-4 AM fluorescence)” value in [9] is listed as “Essentially identical responses were observed to ethyl hexanoate”.
